Experimental data reported in patent publication US6610670B2, “Cyclodextrin-drospirenone inclusion complexes” (Schering Aktiengesellschaft, priority 2000, dated 2003).

Experiment: Phase solubility diagram technique (PSD) in aqueous solutions at 20° C.
Assay type: physicochemical
Details: water, thermodynamic from solid, aqueous solution
Procedure: The following data were obtained with the phase solubility diagram technique (PSD) In aqueous solutions at 20° C. The stability constants of the inclusion compound from β-CD and drospirenone are given.

- solubility: 41.4 µM
- solubility (value in parentheses): 15.1 µg/mL
Compound: C[C@]12CCC(=O)C=C1[C@@H]1C[C@@H]1[C@H]1[C@@H]3[C@@H]4C[C@@H]4[C@@]4(CCC(=O)O4)[C@@]3(C)CC[C@@H]12 [Drospirenone, 6β,7β;15β,16β-dimethylene-3-oxo-17α-pregn-4-ene-21,17-carbolactone]
